# Reference: ChEMBL document CHEMBL1139569, “Hologram quantitative structure-activity relationships for a series of farnesoid X receptor activators” (Bioorg Med Chem Lett, 2005)
# Target: T1, Bile acid receptor (Homo sapiens, UniProt Q96RI1)
# T1 sequence (Q96RI1 whole entry): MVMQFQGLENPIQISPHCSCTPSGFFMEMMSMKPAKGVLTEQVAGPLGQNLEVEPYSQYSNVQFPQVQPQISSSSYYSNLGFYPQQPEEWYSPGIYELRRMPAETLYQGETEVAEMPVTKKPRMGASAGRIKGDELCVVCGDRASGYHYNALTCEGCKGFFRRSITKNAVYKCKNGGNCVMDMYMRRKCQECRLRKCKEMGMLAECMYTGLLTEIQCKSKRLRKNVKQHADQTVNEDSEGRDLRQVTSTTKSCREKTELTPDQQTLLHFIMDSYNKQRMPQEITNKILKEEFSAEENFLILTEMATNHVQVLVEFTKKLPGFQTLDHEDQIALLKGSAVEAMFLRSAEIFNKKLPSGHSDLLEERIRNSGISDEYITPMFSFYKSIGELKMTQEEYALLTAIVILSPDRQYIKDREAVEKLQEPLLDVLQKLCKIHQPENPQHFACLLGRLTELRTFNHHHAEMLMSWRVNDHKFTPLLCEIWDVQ
# Experiment: (§1) Effective concentration against farnesoid X receptor (FXR)
row,SMILES,EC50 [nM]
1,COC(=O)/C=C/c1cccc(N(Cc2ccc(/C=C/C(=O)OC(C)(C)C)cc2OC)C(=O)C2CCCCC2)c1,> 1000
2,COC(=O)/C=C/c1cccc(N(Cc2ccc(/C=C/c3scnc3C)cc2)C(=O)C(C)C)c1,228
3,COC(=O)/C=C/c1cccc(N(Cc2ccc(/C=C/C(=O)OC(C)(C)C)cc2OC(C)=O)C(=O)C2CCCCC2)c1,> 1000
4,COC(=O)/C=C/c1cccc(N(Cc2ccc(/C=C/C(=O)OC(C)(C)C)cc2OCc2ccccc2)C(=O)C2CCCCC2)c1,> 1000
5,COC(=O)/C=C/c1cccc(N(Cc2ccc(-c3c(OC)cccc3OC)cc2)C(=O)C2CCCCC2)c1,77
6,COC(=O)/C=C/c1cccc(N(Cc2ccc(/C=C/c3ccccn3)cc2)C(=O)C(C)C)c1,310
7,COC(=O)/C=C/c1cccc(N(Cc2ccc(-c3ccc(C)s3)cc2)C(=O)C2CCCCC2)c1,206
8,CC(C)(C)OC(=O)/C=C/c1ccc(CN(C(=O)C2CCCCC2)c2cccc(/C=C/C(N)=O)c2)cc1,> 1000
9,CC(C)(C)OC(=O)/C=C/c1ccc(CN(C(=O)C2CCCCC2)c2cccc(/C=C/C(=O)OC(C)(C)C)c2)cc1,> 1000
10,CCOC/C=C/c1cccc(N(Cc2ccc(/C=C/C(=O)OC(C)(C)C)cc2)C(=O)C2CCCCC2)c1,220
11,CCOC(=O)COc1cc(/C=C/C(=O)OC(C)(C)C)ccc1CN(C(=O)C1CCCCC1)c1cccc(/C=C/C(=O)OC)c1,> 1000
12,COC(=O)/C=C/c1cccc(N(Cc2ccc(/C=C/C(=O)OC(C)(C)C)cc2O)C(=O)C2CCCCC2)c1,> 1000
13,COC(=O)/C=C/c1cccc(N(Cc2ccc(-c3ccc4c(c3)OCO4)cc2)C(=O)C2CCCCC2)c1,38
14,CC(C)(C)OC(=O)/C=C/c1cccc(N(Cc2ccc(CCC(=O)OC(C)(C)C)cc2)C(=O)C2CCCCC2)c1,> 1000
15,COC(=O)/C=C/c1cccc(N(Cc2ccc(/C=C/C(=O)NC(C)(C)C)cc2)C(=O)C2CCCCC2)c1,> 1000
16,COC(=O)/C=C/c1cccc(N(Cc2ccc(/C=C/C(=O)OC(C)(C)C)cc2OC(=O)c2ccccc2)C(=O)C2CCCCC2)c1,> 1000
17,CCOC(=O)/C=C/c1ccc(CN(C(=O)C2CCCCC2)c2cccc(/C=C/C(=O)OC)c2)cc1,> 1000
18,COC/C=C/c1cccc(N(Cc2ccc(/C=C/C(=O)OC(C)(C)C)cc2)C(=O)C2CCCCC2)c1,243
19,COC(=O)/C=C/c1cccc(N(Cc2ccc(/C=C/C(=O)OC(C)(C)C)cc2OS(C)(=O)=O)C(=O)C2CCCCC2)c1,> 1000

# Next, values leading:
row,EC50 [nM],SMILES
1,208,COC(=O)/C=C/c1cccc(N(Cc2ccc(/C=C/c3ccc(OC)cc3)cc2)C(=O)C2CCCCC2)c1
2,309,COC(=O)/C=C/c1cccc(N(Cc2ccc(/C=C/c3ccccn3)cc2)C(=O)C2CCCCC2)c1
3,165,COC(=O)/C=C/c1cccc(N(Cc2ccc(/C=C/c3cccc(Cl)c3)cc2)C(=O)C2CCCCC2)c1
4,> 1000,COC(=O)/C=C/c1cccc(N(Cc2ccc(/C=C/C(=O)N(C)C)cc2)C(=O)C2CCCCC2)c1
5,1470,COC(=O)/C=C/c1cccc(N(Cc2ccc(/C=C/c3cc(C(F)(F)F)cc(C(F)(F)F)c3)cc2)C(=O)C2CCCCC2)c1
6,64,COC(=O)/C=C/c1cccc(N(Cc2ccc(/C=C/c3ccccc3F)cc2)C(=O)C2CCCCC2)c1
7,> 1000,COC(=O)/C=C/c1ccc(CN(C(=O)C2CCCCC2)c2cccc(/C=C/C(=O)OC)c2)cc1
8,185,COC(=O)/C=C/c1cccc(N(Cc2ccc(/C=C/c3ccc(F)cc3)cc2)C(=O)C2CCCCC2)c1
9,25,COC(=O)/C=C/c1cccc(N(Cc2ccc(-c3ccc(N(C)C)cc3)cc2)C(=O)C2CCCCC2)c1 [FEXARAMINE]
10,150,COC(=O)/C=C/c1cccc(N(Cc2ccc(/C=C/c3c(Cl)cccc3Cl)cc2)C(=O)C2CCCCC2)c1
11,86,COC(=O)/C=C/c1cccc(N(Cc2ccc(/C=C/c3cccc(F)c3)cc2)C(=O)C2CCCCC2)c1
12,233,COC/C=C/c1ccc(CN(C(=O)C2CCCCC2)c2cccc(/C=C/C(=O)OC)c2)cc1
13,> 1000,COC(=O)/C=C/c1cccc(N(Cc2ccc(/C=C/C(=O)O)cc2)C(=O)C2CCCCC2)c1
14,227,COC(=O)/C=C/c1cccc(N(Cc2ccc(/C=C/c3scnc3C)cc2)C(=O)C2CCCCC2)c1
15,> 1000,COC(=O)/C=C/c1cccc(N(Cc2ccc(/C=C/C(=O)OCc3ccccc3)cc2)C(=O)C2CCCCC2)c1

# Target: T1, Bile acid receptor
# Experiment: as §1
row,SMILES,EC50 [nM]
1,COC(=O)/C=C/c1cccc(N(Cc2ccc(-c3cccc(OC(F)(F)F)c3)cc2)C(=O)C2CCCCC2)c1,417
2,COC(=O)/C=C/c1cccc(N(Cc2ccc(/C=C/c3cccc(F)c3)cc2)C(=O)NC(C)C)c1,468
3,COC(=O)/C=C/c1cccc(N(Cc2ccc(-c3cc(Cl)ccc3OC)cc2)C(=O)C2CCCCC2)c1,234
4,COC(=O)/C=C/c1cccc(N(Cc2ccc(-c3cccc(C)c3)cc2)C(=O)NC(C)C)c1,1320
5,COC(=O)/C=C/c1cccc(N(Cc2ccc(-c3cccc(Cl)c3)cc2)C(=O)NC(C)C)c1,1410
6,COC(=O)/C=C/c1cccc(N(Cc2ccc(/C=C/c3cccc(Cl)c3)cc2)C(=O)C(C)C)c1,162
7,CC(C)(C)OC(=O)/C=C/c1ccc(CN(C(=O)C2CCCCC2)c2cccc(/C=C/C(=O)OC(C)(C)C)c2)cc1,1000
8,COC(=O)/C=C/c1cccc(N(Cc2ccc(-c3ccc4c(c3)OCO4)cc2)C(=O)C(C)C)c1,19.1
9,COC(=O)/C=C/c1cccc(N(Cc2ccc(/C=C/c3ccccc3F)cc2)C(=O)C(C)C)c1,70.8
10,COC(=O)/C=C/c1cccc(N(Cc2ccc(/C=C/c3ccccc3)cc2)C(=O)C(C)C)c1,64.6
11,COC(=O)/C=C/c1cccc(N(Cc2ccc(-c3cccc(OC)c3)cc2)C(=O)C2CCCCC2)c1,77.6
12,COC(=O)/C=C/c1cccc(N(Cc2ccc(-c3ccc(OC(F)(F)F)cc3)cc2)C(=O)C2CCCCC2)c1,263
13,COC(=O)/C=C/c1cccc(N(Cc2ccc(-c3c(OC)cccc3OC)cc2)C(=O)NC(C)C)c1,562
14,COC(=O)/C=C/c1cccc(N(Cc2ccc(/C=C/C(=O)OC(C)(C)C)cc2O)C(=O)C2CCCCC2)c1,1000
15,COC(=O)/C=C/c1cccc(N(Cc2cc(OC)cc(OC)c2)C(=O)C2CCCCC2)c1,603
16,COC(=O)/C=C/c1cccc(N(Cc2ccc(-c3cccc(OC)c3)cc2)C(=O)C(C)C)c1,72.4
17,COC(=O)/C=C/c1cccc(N(Cc2ccc(-c3ccc(F)c(Cl)c3)cc2)C(=O)C(C)C)c1,129

# Continued, values first:
row,EC50 [nM],SMILES
1,166,COC(=O)/C=C/c1cccc(N(Cc2ccc(/C=C/c3cccc(Cl)c3)cc2)C(=O)C2CCCCC2)c1
2,186,COC(=O)/C=C/c1cccc(N(Cc2ccc(/C=C/c3ccc(F)cc3)cc2)C(=O)C2CCCCC2)c1
3,151,COC(=O)/C=C/c1cccc(N(Cc2ccc(/C=C/c3c(Cl)cccc3Cl)cc2)C(=O)C2CCCCC2)c1
4,1000,COC(=O)/C=C/c1cccc(N(Cc2ccc(/C=C/C(=O)O)cc2)C(=O)C2CCCCC2)c1
